According to patent US11950596B2, “Methods of protecting seeds from oxidants and microorganisms” (The United States of America, as represented by the …, priority 2020, dated 2024):
Where two headings read alike, the source gives them in different places. Marks after values point to notes of the source that are not given here.

Experiments:
[1] = system: P. expansum W2; test: Heat-sensitizing bioassay of OG (MFC) in other fungi; type: cell-based; details: Penicillium expansum, 90 seconds
Experimental: (§1) As described in A. flavus 3357 test (see above), microfuge tubes were treated with mild heat (57.5° C.) or maintained at RT (22.0° C.) (90 seconds). After heat treatments, entire volume (200 μL) from each microfuge tube was spread onto fresh recovery LB agar (for bacteria) or PDA (for fungi), and plates were incubated at the optimum temperature for respective microorganisms (i.e., 35° C. for Aspergillus, 37° C. for E. coli, 28° C. for Penicillium/A. tumefaciens, respectively). The growth/survival of test microorganisms were monitored after 48 to 72 hrs of incubation.
(§2) Heat-sensitizing activity of OG against other fungi: Heat-sensitizing activity of OG was then investigated in other fungi (five Aspergillus strains and seven Penicillium strains) including fungicide resistant strains (i.e., P. expansum FR2, FR3 resistant to the conventional fungicide fludioxonil) (see Table 1).

[2] = system: A. parasiticus 2999; test: as above; type: cell-based, Aspergillus parasiticus; details: 90 seconds
Experimental: as §1, §2

[3] = system: A. parasiticus 5862; test: as above; type: cell-based, Aspergillus parasiticus; details: 90 seconds
Experimental: as §1, §2

[4] = system: A. flavus 3357; test: Heat-sensitizing antimicrobial bioassay (MFC) in A. flavus 3357; type: cell-based, Aspergillus flavus; details: for MFC: Aspergillus flavus, 3357, 0.025 h, read-out: minimum fungicidal concentration (MFC; >99.999% fungal death)
Experimental: Antimicrobial bioassay: The heat-sensitizing effect of twenty-eight compounds (phenolic derivatives, alkyl gallates, other food additives) (0.025, 0.050, 0.075, 0.100, 0.200, 0.300, 0.400, 0.500, 0.600 or 0.700 mM) and six drugs/fungicides (1, 2, 4, 8, 16, 32, 64 ppm) (Table 2) were examined using A. flavus 3357. Two hundred μL of fungal spores (1.5×10^5 to 2.1×10^5 CFU) dispersed in PBS was transferred into individual microfuge tube (1.5 mL vol.), where (1) “control” tube contained DMSO only, while (2) “treatment” tube contained test chemical/drug at respective concentration. The tubes were then treated with mild heat (57.5° C.) or maintained at room temperature (RT; 22.0° C.) for 90 seconds. After treatments, entire volume (200 μL) from each microfuge tube was spread onto fresh recovery PDA, and plates were incubated at respective temperatures. Fungal growth/survival was monitored after 48 hrs of incubation.
as §1
Determination of optimum temperature and time duration for screening heat sensitizers in A. flavus 3357: For the determination of the optimum temperature and time points for screening heat sensitizers, fungal (A. flavus 3357) survivability was tested by exposing fungal spores (1.5×10^5 to 2.1×10^5 CFU) to different temperatures (50, 55, 57.5, 60, 65° C.) and time points (0.5, 1.0, 1.5, 2.0, 2.5, 3.0, 3.5, 4.0, 4.5, 5.0 min).

[5] = system: A. tumefaciens 4212; test: Heat-sensitizing bioassay of OG (MBC) in bacteria; type: cell-based, Agrobacterium tumefaciens; details: 90 seconds, read-out: minimum bactericidal concentration (MBC) of OG
Experimental: as §1
(§3) Heat-sensitizing activity of OG against bacteria (A. tumefaciens, E. coli): Heat-sensitizing activity of OG was also investigated against bacterial cells (i.e., E. coli and plant-pathogenic A. tumefaciens). […] (Table 4; FIG. 2).

[6] = system: E. coli JM109; test: Heat-sensitizing bioassay of OG (MBC) in bacteria; type: cell-based; details: Escherichia coli, 90 seconds, read-out: minimum bactericidal concentration (MBC) of OG
Experimental: as §1, §3

Structure (SMILES): CCCCCCCCOC(=O)c1cc(O)c(O)c(O)c1 [Octyl gallate]
- MFC ([1]; W2, 22.0° C.): > 300 µM
- MFC ([1]; W2, 57.5° C.): 170 µM
- MFC ([2]; Aspergillus parasiticus, 2999, 22.0° C.): > 300 µM
- MFC ([2]; Aspergillus parasiticus, 2999, 57.5° C.): 200 µM
- MFC ([3]; Aspergillus parasiticus, 5862, 22.0° C.): > 300 µM
- MFC ([3]; Aspergillus parasiticus, 5862, 57.5° C.): 300 µM
- minimum fungicidal concentration (MFC; >99.999% fungal death) [4]: 180* μM
- MFC ([4]; 22.0° C. (RT), 90 seconds, PBS): 250 µM
- MFC [4]: 180 µM
- MBC ([5]; Agrobacterium tumefaciens, 4212, 22° C.): 200 µM
- MBC ([5]; Agrobacterium tumefaciens, 4212, 57.5° C.): 75 µM
- MBC ([6]; JM109, 22° C.): 300 µM
- MBC ([6]; JM109, 57.5° C.): 75 µM
